≈ marks a conversion by molar mass, not a printed value.
Tests used:
Format in all cases: functional
Staphylococcus aureus [1] = test: Antimicrobial activity against Staphylococcus aureus after 24 hrs by well-diffusion assay
Staphylococcus aureus [2] = test: Antimicrobial activity against Staphylococcus aureus after 24 hrs by microbroth dilution assay
Pseudomonas aeruginosa = test: Antimicrobial activity against Pseudomonas aeruginosa after 24 hrs by well-diffusion assay
Escherichia coli [3] = test: Antimicrobial activity against Escherichia coli after 24 hrs by microbroth dilution assay
Bacillus subtilis = test: Antimicrobial activity against Bacillus subtilis after 24 hrs by well-diffusion assay
Escherichia coli [4] = test: Antimicrobial activity against Escherichia coli after 24 hrs by well-diffusion assay
Streptococcus sp. = test: Antimicrobial activity against Streptococcus spp. after 24 hrs by well-diffusion assay
Proteus mirabilis = test: Antimicrobial activity against Proteus mirabilis after 24 hrs by well-diffusion assay
Klebsiella pneumoniae = test: Antimicrobial activity against Klebsiella pneumoniae after 24 hrs by well-diffusion assay

## Sc1nnnn1-c1ccccc1
Staphylococcus aureus [1]
  inhibition zone (IZ): 18 mm
Staphylococcus aureus [2]
  MIC: 1.76 µg/mL (≈ 9.9 µM)
Pseudomonas aeruginosa
  inhibition zone (IZ): 11 mm
Escherichia coli [3]
  MIC: 1.77 µg/mL (≈ 9.91 µM)
Bacillus subtilis
  inhibition zone (IZ): 16 mm
Escherichia coli [4]
  inhibition zone (IZ): 14 mm
Streptococcus sp.
  inhibition zone (IZ): 12 mm
Proteus mirabilis
  inhibition zone (IZ): 19 mm
Klebsiella pneumoniae
  inhibition zone (IZ): 8 mm

## c1ccc(CSc2nnnn2-c2ccccc2)cc1
Staphylococcus aureus [1]
  inhibition zone (IZ): 0 mm
Pseudomonas aeruginosa
  inhibition zone (IZ): 0 mm
Bacillus subtilis
  inhibition zone (IZ): 0 mm
Escherichia coli [4]
  inhibition zone (IZ): 0 mm
Streptococcus sp.
  inhibition zone (IZ): 0 mm
Proteus mirabilis
  inhibition zone (IZ): 0 mm
Klebsiella pneumoniae
  inhibition zone (IZ): 0 mm

## O=c1n(Cc2ccccc2)nnn1-c1ccccc1
Staphylococcus aureus [1]
  inhibition zone (IZ): 0 mm
Pseudomonas aeruginosa
  inhibition zone (IZ): 0 mm
Bacillus subtilis
  inhibition zone (IZ): 0 mm
Escherichia coli [4]
  inhibition zone (IZ): 0 mm
Streptococcus sp.
  inhibition zone (IZ): 0 mm
Proteus mirabilis
  inhibition zone (IZ): 7 mm
Klebsiella pneumoniae
  inhibition zone (IZ): 0 mm

## O=c1n(CCCCCCn2nnn(-c3ccccc3)c2=O)nnn1-c1ccccc1
Staphylococcus aureus [1]
  inhibition zone (IZ): 0 mm
Pseudomonas aeruginosa
  inhibition zone (IZ): 0 mm
Bacillus subtilis
  inhibition zone (IZ): 0 mm
Escherichia coli [4]
  inhibition zone (IZ): 0 mm
Streptococcus sp.
  inhibition zone (IZ): 0 mm
Proteus mirabilis
  inhibition zone (IZ): 0 mm
Klebsiella pneumoniae
  inhibition zone (IZ): 0 mm

## c1ccc(-n2nnnc2SCCCCCCSc2nnnn2-c2ccccc2)cc1
Staphylococcus aureus [1]
  inhibition zone (IZ): 0 mm
Pseudomonas aeruginosa
  inhibition zone (IZ): 0 mm
Bacillus subtilis
  inhibition zone (IZ): 0 mm
Escherichia coli [4]
  inhibition zone (IZ): 0 mm
Streptococcus sp.
  inhibition zone (IZ): 0 mm
Proteus mirabilis
  inhibition zone (IZ): 0 mm
Klebsiella pneumoniae
  inhibition zone (IZ): 0 mm

## CCOC(=O)CSc1nnnn1-c1ccccc1
Staphylococcus aureus [1]
  inhibition zone (IZ): 9 mm
Staphylococcus aureus [2]
  MIC: 5.29 µg/mL (≈ 20 µM)
Pseudomonas aeruginosa
  inhibition zone (IZ): 0 mm
Escherichia coli [3]
  MIC: 15.9 µg/mL (≈ 60 µM)
Bacillus subtilis
  inhibition zone (IZ): 13 mm
Escherichia coli [4]
  inhibition zone (IZ): 0 mm
Streptococcus sp.
  inhibition zone (IZ): 13 mm
Proteus mirabilis
  inhibition zone (IZ): 14 mm
Klebsiella pneumoniae
  inhibition zone (IZ): 0 mm

## O=C(O)CCC(=O)OCn1nnn(-c2ccccc2)c1=S
Staphylococcus aureus [1]
  inhibition zone (IZ): 24 mm
Staphylococcus aureus [2]
  MIC: 1.37 µg/mL (≈ 4.44 µM)
Pseudomonas aeruginosa
  inhibition zone (IZ): 17 mm
Escherichia coli [3]
  MIC: 1.37 µg/mL (≈ 4.44 µM)
Bacillus subtilis
  inhibition zone (IZ): 12 mm
Escherichia coli [4]
  inhibition zone (IZ): 11 mm
Streptococcus sp.
  inhibition zone (IZ): 19 mm
Proteus mirabilis
  inhibition zone (IZ): 11 mm
Klebsiella pneumoniae
  inhibition zone (IZ): 16 mm

## O=c1n(CCO)nnn1-c1ccccc1
Staphylococcus aureus [1]
  inhibition zone (IZ): 0 mm
Staphylococcus aureus [2]
  MIC: 5.29 µg/mL (≈ 25.7 µM)
Pseudomonas aeruginosa
  inhibition zone (IZ): 0 mm
Escherichia coli [3]
  MIC: 8 µg/mL (≈ 38.8 µM)
Bacillus subtilis
  inhibition zone (IZ): 12 mm
Escherichia coli [4]
  inhibition zone (IZ): 11 mm
Streptococcus sp.
  inhibition zone (IZ): 0 mm
Proteus mirabilis
  inhibition zone (IZ): 12 mm
Klebsiella pneumoniae
  inhibition zone (IZ): 13 mm

## CC(=O)OCCn1nnn(-c2ccccc2)c1=O
Staphylococcus aureus [1]
  inhibition zone (IZ): 0 mm
Staphylococcus aureus [2]
  MIC: 37 µg/mL (≈ 149 µM)
Pseudomonas aeruginosa
  inhibition zone (IZ): 0 mm
Escherichia coli [3]
  MIC: 37 µg/mL (≈ 149 µM)
Bacillus subtilis
  inhibition zone (IZ): 9 mm
Escherichia coli [4]
  inhibition zone (IZ): 12 mm
Streptococcus sp.
  inhibition zone (IZ): 0 mm
Proteus mirabilis
  inhibition zone (IZ): 15 mm
Klebsiella pneumoniae
  inhibition zone (IZ): 0 mm

## O=c1n(CCOCc2ccccc2)nnn1-c1ccccc1
Staphylococcus aureus [1]
  inhibition zone (IZ): 0 mm
Pseudomonas aeruginosa
  inhibition zone (IZ): 0 mm
Bacillus subtilis
  inhibition zone (IZ): 0 mm
Escherichia coli [4]
  inhibition zone (IZ): 0 mm
Streptococcus sp.
  inhibition zone (IZ): 0 mm
Proteus mirabilis
  inhibition zone (IZ): 20 mm
Klebsiella pneumoniae
  inhibition zone (IZ): 0 mm

## O=c1n(CO)nnn1-c1ccccc1
Staphylococcus aureus [1]
  inhibition zone (IZ): 38 mm
Staphylococcus aureus [2]
  MIC: 0.19 µg/mL (≈ 0.989 µM)
Pseudomonas aeruginosa
  inhibition zone (IZ): 24 mm
Escherichia coli [3]
  MIC: 1.76 µg/mL (≈ 9.16 µM)
Bacillus subtilis
  inhibition zone (IZ): 33 mm
Escherichia coli [4]
  inhibition zone (IZ): 30 mm
Streptococcus sp.
  inhibition zone (IZ): 42 mm
Proteus mirabilis
  inhibition zone (IZ): 34 mm
Klebsiella pneumoniae
  inhibition zone (IZ): 22 mm

## OCn1nnn(-c2ccccc2)c1=S
Staphylococcus aureus [1]
  inhibition zone (IZ): 32 mm
Staphylococcus aureus [2]
  MIC: 1.76 µg/mL (≈ 8.45 µM)
Pseudomonas aeruginosa
  inhibition zone (IZ): 23 mm
Escherichia coli [3]
  MIC: 0.58 µg/mL (≈ 2.79 µM)
Bacillus subtilis
  inhibition zone (IZ): 30 mm
Escherichia coli [4]
  inhibition zone (IZ): 31 mm
Streptococcus sp.
  inhibition zone (IZ): 42 mm
Proteus mirabilis
  inhibition zone (IZ): 26 mm
Klebsiella pneumoniae
  inhibition zone (IZ): 19 mm

## CC(=O)OCn1nnn(-c2ccccc2)c1=O
Staphylococcus aureus [1]
  inhibition zone (IZ): 9 mm
Staphylococcus aureus [2]
  MIC: 2.66 µg/mL (≈ 11.4 µM)
Pseudomonas aeruginosa
  inhibition zone (IZ): 0 mm
Escherichia coli [3]
  MIC: 13.9 µg/mL (≈ 59.3 µM)
Bacillus subtilis
  inhibition zone (IZ): 14 mm
Escherichia coli [4]
  inhibition zone (IZ): 0 mm
Streptococcus sp.
  inhibition zone (IZ): 10 mm
Proteus mirabilis
  inhibition zone (IZ): 11 mm
Klebsiella pneumoniae
  inhibition zone (IZ): 0 mm

## CC(=O)OCn1nnn(-c2ccccc2)c1=S
Staphylococcus aureus [1]
  inhibition zone (IZ): 10 mm
Staphylococcus aureus [2]
  MIC: 4.62 µg/mL (≈ 18.5 µM)
Pseudomonas aeruginosa
  inhibition zone (IZ): 0 mm
Escherichia coli [3]
  MIC: 13.9 µg/mL (≈ 55.5 µM)
Bacillus subtilis
  inhibition zone (IZ): 12 mm
Escherichia coli [4]
  inhibition zone (IZ): 0 mm
Streptococcus sp.
  inhibition zone (IZ): 0 mm
Proteus mirabilis
  inhibition zone (IZ): 15 mm
Klebsiella pneumoniae
  inhibition zone (IZ): 0 mm

## O=c1[nH]nnn1-c1ccccc1
Staphylococcus aureus [1]
  inhibition zone (IZ): 12 mm
Staphylococcus aureus [2]
  MIC: 1.54 µg/mL (≈ 9.52 µM)
Pseudomonas aeruginosa
  inhibition zone (IZ): 0 mm
Escherichia coli [3]
  MIC: 1.54 µg/mL (≈ 9.52 µM)
Bacillus subtilis
  inhibition zone (IZ): 14 mm
Escherichia coli [4]
  inhibition zone (IZ): 10 mm
Streptococcus sp.
  inhibition zone (IZ): 11 mm
Proteus mirabilis
  inhibition zone (IZ): 0 mm
Klebsiella pneumoniae
  inhibition zone (IZ): 9 mm

Source: ChEMBL document CHEMBL3608208, “Synthesis, antibacterial and QSAR evaluation of 5-oxo and 5-thio derivatives of 1,4-disubstituted tetrazoles” (2015)
